Measurements published in patent publication US20230270724A1, “PDE3 inhibitors for treating viral infections” (priority 2020, published 2023).
“And” between values parts separate entries of the source, which are not always exact repeats. Equal entries are not always repeated. “Also recorded” adds a separate entry of the source.

Experiments:
[1] = system: SARS-CoV-2; experiment: Clinical case series: enoximone IV (Perfan) in COVID-19 patients at ICU admission, compared with prior control patients; conditions: for FiO2 / RESP. RATE: one value per patient; for RESP. SUPPORT: one value per patient 1-4
[2] = system: pro-inflammation; conditions: patients with cardiopulmonary bypass surgery; antiviral activity maintained; cited from earlier work
[3] = at the doses used, all patients
[4] = one value per enoximone-treated subject (1-4 = c4-c7)

Question: With `CSc1ccc(C(=O)c2[nH]c(=O)[nH]c2C)cc1` [enoximone, 1,3-dihydro-4-methyl-5-[4-(methylthio)benzoyl]-2H-imidazol-2-on] as the molecule, how does the “time after start of enoximone until breathing calmly and able to call” value ([1]; Patient 1, 20 mg IV then perfusion 10 mg/h, monosyllabic upon entry) read?
Answer: Its value is 10 min.

Question: And the “time until calmer breathing and mobilisation” value ([1]; Patient 2, 20 mg IV then 10 mg/h)?
Answer: Its value is “about 2 days”.

Question: What about the “time before the patient had lost the feeling of dyspnea” value ([1]; Patient 2, 20 mg IV then 10 mg/h, sputum retention) of the same molecule?
Answer: Its value is 1 days.

Question: And the “time until patient breathed optimally and Optiflow could be reduced to 0” value ([1]; Patient 3 (COPD Gold III), 20 mg IV then 10 mg/h)?
Answer: Its value is “a day and a half”.

Question: And the “time until able to breathe calmly and communicate normally” value ([1]; Patient 4, bolus then i.v. perfusor 5 mg/hour during 24 hours)?
Answer: Its value is no more than 10 min.

Question: And the FiO2 ([1]; after 24 hrs of Enoximone)?
Answer: Its FiO2 is 60% and 55% and 50%.

Question: What about the “RESP. RATE” value ([1]; after 24 hrs of Enoximone) of the same molecule?
Answer: The value was 15 and 12.

Question: What about the “RESP. SUPPORT” value ([1]; after 24 hrs of Enoximone) of the same molecule?
Answer: The value was “none and Optiflow (3×)”.

Question: What about the FiO2 ([1]; after 48 hrs) of the same molecule?
Answer: Its FiO2 is 60% and 50%.

Question: What about the “RESP. RATE” value ([1]; after 48 hrs) of the same molecule?
Answer: Its value is 16 and 13.

Question: What about the “RESP. SUPPORT” value ([1]; after 48 hrs) of the same molecule?
Answer: Its value is “none (2×) and Optiflow (2×)”.

Question: What about the “persistence of beneficial effect” value ([1]; after discontinuation of enoximone, all patients) of the same molecule?
Answer: Its value is “beneficial effect persisted even after discontinuation”.

Question: What about the adverse events [1, 3] of the same molecule?
Answer: The adverse events was “no clinically relevant adverse events were observed”.

Question: What about the tolerability [1, 3] of the same molecule?
Answer: The tolerability was “well-tolerated in all patients”.

Question: What about the blood gas analysis ([1]; between before and 1 h after enoximone) of the same molecule?
Answer: Its blood gas analysis is “minimal improvement in three out of four patients”.

Question: And the “stay in ICU” value ([1]; enoximone-treated patients, controls 12-31 days)?
Answer: Its value is 2 to 5 days.

Question: What about the “discharge from hospital after start of enoximone treatment” value ([1]; enoximone-treated patients, controls 18-44 days following start of mechanical ventilation) of the same molecule?
Answer: Its value is 5 to 12 days.

Question: What about the “overall stay in hospital” value ([1]; enoximone-treated patients, controls 22-46 days, Mann-Whitney U test p=0.05) of the same molecule?
Answer: The value was 13 to 15 days.

Question: And the edema ([1]; following enoximone treatment)?
Answer: The edema was “decrease of edema”.

Question: And the oxygenation ([1]; following enoximone treatment (Table 3, FiO2%))?
Answer: The oxygenation was “substantially improved”.

Question: And the “need for mechanical ventilation” value ([1]; four enoximone-treated patients vs three controls, Fisher's exact test p=0.029)?
Answer: Its value is “none of the enoximone-treated patients required mechanical ventilation; also recorded: no need for mechanical ventilation”.

Question: What about the symptomatic relief ([1]; four patients) of the same molecule?
Answer: Its symptomatic relief is “rapid symptomatic relief in two out of four patients”.

Question: What about the Days mechanical ventilation [1, 4] of the same molecule?
Answer: The Days mechanical ventilation was 0 days.

Question: What about the “Total days in hospital [=ii + iii + iv]” value [1, 4] of the same molecule?
Answer: Its value is 14 days and 13 days and 15 days.

Question: And the “Total duration of disease (onset-discharge) [=i + ii + iii + iv)” value [1, 4]?
Answer: The value was 19 and 20 and 26.

Question: What about the “time to full recovery” value ([1]; patients 1 and 4) of the same molecule?
Answer: The value was “within a few hours”.

Question: What about the time to respond ([1]; patients 2 and 3 (comorbid obesity or COPD GOLD III), sputum retention) of the same molecule?
Answer: Its time to respond is 24 to 36 h.

Question: What about the “effectiveness against pro-inflammation compared with methylprednisolone” value [2] of the same molecule?
Answer: Its value is “as effective against pro-inflammation as methylprednisolone”.
